Target: T1, micrococcal nuclease (Staphylococcus aureus, UniProt P00644)
T1 construct: purchased Sigma N5386
Experiment: inactivation of micrococcal nuclease by EGTA, read out in the real time T7 DNA amplification reaction
Type: biochemical
Settings: 2 mM EGTA added after incubation with 1 mM CaCl2
From the text: Micrococcal nuclease is obtained from Sigma (Sigma catalog number N5386 from Staphylococcus aureus, Foggi strain; 100-300 units/mg). EGTA, Ethylene glycol-bis(2-aminoethyl ether)-N,N,N′,N′-tetraacetic acid, is used as the micrococcal inactivating-agent and is obtained from Sigma (Sigma catalog number E8145. Tetrasodium salt). […]
DNA was quantitated by its ability to stimulate a real time DNA amplification reaction based on the T7 replication system, as described in PCT number WO 00/41524, published Jul. […] In this assay, the time required for the synthesized DNA to reach a designated threshold fluorescence value is proportional to the log of the input concentration of DNA over more than a 10,000,000-fold range of DNA concentration.

In the case of O=C(O)CN(CCOCCOCCN(CC(=O)O)CC(=O)O)CC(=O)O [EGTA, Ethylene glycol-bis(2-aminoethyl ether)-N,N,N′,N′-tetraacetic acid], the “effect of EGTA on micrococcal nuclease activity” value is reported as “inactivated”.

— patent publication US20020172972A1, “Use of a selectively inactivatable enzyme to digest contaminating nucleic acid” (President and Fellows of Harvard College, priority 2001, published 2002)
